According to PubChem BioAssay (NCI):
“And” between values parts separate entries of the source, which are not always exact repeats. Equal entries are not always repeated.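 Protocol summary: plate cells (96-well), add compound at 5 concentrations, incubate 48 h, interpolate endpoints linearly. Here, GI50 denotes the concentration required for 50% inhibition of growth. The concentration for full growth arrest is given as TGI.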

Legend:
Assay in all cases: NCI-60 cell line screen, 48 h; in the data active = GI50 below about 0.43 µM; inactive = the rest
SK-MEL-2 melanoma = system: SK-MEL-2 melanoma
T-47D breast = system: T-47D breast
SNB-78 CNS = system: SNB-78 CNS
SN12C renal = system: SN12C renal
HOP-18 NSCLC = system: HOP-18 NSCLC
UACC-62 melanoma = system: UACC-62 melanoma
HCC-2998 colon = system: HCC-2998 colon
CCRF-CEM leukemia = system: CCRF-CEM leukemia
CAKI-1 renal = system: CAKI-1 renal
A549 NSCLC = system: A549 NSCLC
MALME-3M melanoma = system: MALME-3M melanoma
HOP-62 NSCLC = system: HOP-62 NSCLC
ACHN renal = system: ACHN renal
UACC-257 melanoma = system: UACC-257 melanoma
DU-145 prostate = system: DU-145 prostate
MOLT-4 leukemia = system: MOLT-4 leukemia
SK-MEL-28 melanoma = system: SK-MEL-28 melanoma
MDA-MB-231 breast = system: MDA-MB-231 breast
HS 578T breast = system: HS 578T breast
EKVX NSCLC = system: EKVX NSCLC
HT29 colon = system: HT29 colon
PC-3 prostate = system: PC-3 prostate
786-0 renal = system: 786-0 renal
OVCAR-5 ovarian = system: OVCAR-5 ovarian
DLD-1 colon = system: DLD-1 colon
TK-10 renal = system: TK-10 renal
K-562 leukemia = system: K-562 leukemia
SW-620 colon = system: SW-620 colon
IGROV1 ovarian = system: IGROV1 ovarian
SNB-19 CNS = system: SNB-19 CNS
SNB-75 CNS = system: SNB-75 CNS
BT-549 breast = system: BT-549 breast
RPMI-8226 leukemia = system: RPMI-8226 leukemia
MDA-N = system: MDA-N
OVCAR-3 ovarian = system: OVCAR-3 ovarian
UO-31 renal = system: UO-31 renal
DMS 273 small cell lung = system: DMS 273 small cell lung
RXF-631 renal = system: RXF-631 renal
NCI-H522 lung = system: NCI-H522 lung
NCI-H23 lung = system: NCI-H23 lung
COLO 205 colon = system: COLO 205 colon
HCT-15 colon = system: HCT-15 colon
A498 renal = system: A498 renal
M19-MEL melanoma = system: M19-MEL melanoma
NCI-H226 lung = system: NCI-H226 lung
LOX IMVI melanoma = system: LOX IMVI melanoma
SF-295 CNS = system: SF-295 CNS
RXF 393 renal = system: RXF 393 renal
SK-OV-3 ovarian = system: SK-OV-3 ovarian
OVCAR-4 ovarian = system: OVCAR-4 ovarian
SF-539 CNS = system: SF-539 CNS
LXFL 529 NSCLC = system: LXFL 529 NSCLC
HL-60(TB) leukemia = system: HL-60(TB) leukemia
OVCAR-8 ovarian = system: OVCAR-8 ovarian
SF-268 CNS = system: SF-268 CNS
KM12 colon = system: KM12 colon
M14 melanoma = system: M14 melanoma
SK-MEL-5 melanoma = system: SK-MEL-5 melanoma
U251 CNS = system: U251 CNS

COc1ccc(/C=C\c2cc(OC)c(OC)c(OC)c2)cc1OP(=O)(O)O
> 100 µM and 50 µM and > 65 µM: TGI (ACHN renal)
25.1 µM and 50 µM and > 100 µM: TGI (RPMI-8226 leukemia)
active: GI50 (MDA-N) < 0.1 nM
> 100 µM: TGI (HOP-18 NSCLC) | TGI (CCRF-CEM leukemia) | TGI (PC-3 prostate) | TGI (786-0 renal) | TGI (OVCAR-5 ovarian) | TGI (TK-10 renal) | TGI (SNB-19 CNS) | TGI (BT-549 breast)
> 67.5 µM and 50 µM and > 100 µM: TGI (CAKI-1 renal)
> 12.1 µM: TGI (MDA-MB-231 breast)
> 100 µM and 50 µM: TGI (SNB-78 CNS) | TGI (SN12C renal) | TGI (A549 NSCLC) | TGI (MOLT-4 leukemia) | TGI (SK-MEL-28 melanoma) | TGI (EKVX NSCLC) | TGI (DLD-1 colon) | TGI (SW-620 colon) | TGI (IGROV1 ovarian)
88.9 µM and 50 µM and > 100 µM: TGI (UACC-257 melanoma)
50 µM and > 100 µM: TGI (K-562 leukemia) | TGI (SNB-75 CNS)
> 100 µM and 50 µM and > 64.3 µM: TGI (UACC-62 melanoma)
16.9 nM and 95.3 nM: TGI (SK-MEL-2 melanoma)
> 100 µM and 50 µM and > 76.1 µM: TGI (HOP-62 NSCLC)
inactive: GI50 (T-47D breast) 20.7 µM | GI50 (HOP-18 NSCLC) > 100 µM | GI50 (HCC-2998 colon) 929 nM | GI50 (HOP-62 NSCLC) 11.9 µM | GI50 (DU-145 prostate) 609 nM | GI50 (HS 578T breast) 13.2 µM | GI50 (HT29 colon) 486 nM and 3890 nM
> 100 µM and 24.5 µM and > 89 µM: TGI (MALME-3M melanoma)
356 nM and 371 nM: TGI (DU-145 prostate)

S=C(Nc1ccccc1)Nc1[nH]c(=S)sc1-c1nc2ccccc2[nH]1
29.4 µM: TGI (NCI-H226 lung)
> 100000 nM: TGI (SK-MEL-2 melanoma)
66.8 µM: TGI (HOP-62 NSCLC)
74.3 µM: TGI (SF-539 CNS)
80.9 µM: TGI (SK-OV-3 ovarian)
> 100 µM: TGI (SNB-78 CNS) | TGI (SN12C renal) | TGI (HOP-18 NSCLC) | TGI (OVCAR-3 ovarian) | TGI (UACC-62 melanoma) | TGI (UO-31 renal) | TGI (DMS 273 small cell lung) | TGI (HCC-2998 colon) | TGI (RXF-631 renal) | TGI (CCRF-CEM leukemia) | TGI (CAKI-1 renal) | TGI (A549 NSCLC) | TGI (MALME-3M melanoma) | TGI (NCI-H522 lung) | TGI (NCI-H23 lung) | TGI (COLO 205 colon) | TGI (HCT-15 colon) | TGI (ACHN renal) | TGI (UACC-257 melanoma) | TGI (MOLT-4 leukemia) | TGI (SK-MEL-28 melanoma) | TGI (A498 renal) | TGI (M19-MEL melanoma) | TGI (LOX IMVI melanoma) | TGI (EKVX NSCLC) | TGI (SF-295 CNS) | TGI (HT29 colon) | TGI (786-0 renal) | TGI (RXF 393 renal) | TGI (OVCAR-5 ovarian) | TGI (LXFL 529 NSCLC) | TGI (DLD-1 colon) | TGI (HL-60(TB) leukemia) | TGI (TK-10 renal) | TGI (OVCAR-8 ovarian) | TGI (K-562 leukemia) | TGI (SW-620 colon) | TGI (SF-268 CNS) | TGI (IGROV1 ovarian) | TGI (SNB-19 CNS) | TGI (KM12 colon) | TGI (M14 melanoma) | TGI (SK-MEL-5 melanoma) | TGI (U251 CNS) | TGI (RPMI-8226 leukemia)
81.2 µM: TGI (OVCAR-4 ovarian)
78.5 µM: TGI (SNB-75 CNS)
